According to patent US8952034B2, “Fused heterocyclic compounds as ion channel modulators” (Gilead Sciences, Inc., priority 2009, dated 2015):

target: wild-type human cardiac sodium channel, hNav1.5 (Homo sapiens, UniProt Q14524); experiment: Late INa screening assay (automated whole cell patch clamp, PatchXpress); type: cell-based; conditions: not given
Method in brief: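 Late sodium current through wild-type human hNav1.5 stably expressed in HEK293 cells (no beta subunits) was recorded by automated whole-cell patch clamp on a PatchXpress 7000A at 24-27° C. Late INa was induced with 10 μM Tefluthrin or 50 nM ATX II. Cells were stepped from −120 mV to −20 mV for 250 ms at 0.1 Hz, and percent block was normalized to current in Na-free extracellular solution.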

wild-type human cardiac sodium channel, hNav1.5, sequence (Q14524 whole entry): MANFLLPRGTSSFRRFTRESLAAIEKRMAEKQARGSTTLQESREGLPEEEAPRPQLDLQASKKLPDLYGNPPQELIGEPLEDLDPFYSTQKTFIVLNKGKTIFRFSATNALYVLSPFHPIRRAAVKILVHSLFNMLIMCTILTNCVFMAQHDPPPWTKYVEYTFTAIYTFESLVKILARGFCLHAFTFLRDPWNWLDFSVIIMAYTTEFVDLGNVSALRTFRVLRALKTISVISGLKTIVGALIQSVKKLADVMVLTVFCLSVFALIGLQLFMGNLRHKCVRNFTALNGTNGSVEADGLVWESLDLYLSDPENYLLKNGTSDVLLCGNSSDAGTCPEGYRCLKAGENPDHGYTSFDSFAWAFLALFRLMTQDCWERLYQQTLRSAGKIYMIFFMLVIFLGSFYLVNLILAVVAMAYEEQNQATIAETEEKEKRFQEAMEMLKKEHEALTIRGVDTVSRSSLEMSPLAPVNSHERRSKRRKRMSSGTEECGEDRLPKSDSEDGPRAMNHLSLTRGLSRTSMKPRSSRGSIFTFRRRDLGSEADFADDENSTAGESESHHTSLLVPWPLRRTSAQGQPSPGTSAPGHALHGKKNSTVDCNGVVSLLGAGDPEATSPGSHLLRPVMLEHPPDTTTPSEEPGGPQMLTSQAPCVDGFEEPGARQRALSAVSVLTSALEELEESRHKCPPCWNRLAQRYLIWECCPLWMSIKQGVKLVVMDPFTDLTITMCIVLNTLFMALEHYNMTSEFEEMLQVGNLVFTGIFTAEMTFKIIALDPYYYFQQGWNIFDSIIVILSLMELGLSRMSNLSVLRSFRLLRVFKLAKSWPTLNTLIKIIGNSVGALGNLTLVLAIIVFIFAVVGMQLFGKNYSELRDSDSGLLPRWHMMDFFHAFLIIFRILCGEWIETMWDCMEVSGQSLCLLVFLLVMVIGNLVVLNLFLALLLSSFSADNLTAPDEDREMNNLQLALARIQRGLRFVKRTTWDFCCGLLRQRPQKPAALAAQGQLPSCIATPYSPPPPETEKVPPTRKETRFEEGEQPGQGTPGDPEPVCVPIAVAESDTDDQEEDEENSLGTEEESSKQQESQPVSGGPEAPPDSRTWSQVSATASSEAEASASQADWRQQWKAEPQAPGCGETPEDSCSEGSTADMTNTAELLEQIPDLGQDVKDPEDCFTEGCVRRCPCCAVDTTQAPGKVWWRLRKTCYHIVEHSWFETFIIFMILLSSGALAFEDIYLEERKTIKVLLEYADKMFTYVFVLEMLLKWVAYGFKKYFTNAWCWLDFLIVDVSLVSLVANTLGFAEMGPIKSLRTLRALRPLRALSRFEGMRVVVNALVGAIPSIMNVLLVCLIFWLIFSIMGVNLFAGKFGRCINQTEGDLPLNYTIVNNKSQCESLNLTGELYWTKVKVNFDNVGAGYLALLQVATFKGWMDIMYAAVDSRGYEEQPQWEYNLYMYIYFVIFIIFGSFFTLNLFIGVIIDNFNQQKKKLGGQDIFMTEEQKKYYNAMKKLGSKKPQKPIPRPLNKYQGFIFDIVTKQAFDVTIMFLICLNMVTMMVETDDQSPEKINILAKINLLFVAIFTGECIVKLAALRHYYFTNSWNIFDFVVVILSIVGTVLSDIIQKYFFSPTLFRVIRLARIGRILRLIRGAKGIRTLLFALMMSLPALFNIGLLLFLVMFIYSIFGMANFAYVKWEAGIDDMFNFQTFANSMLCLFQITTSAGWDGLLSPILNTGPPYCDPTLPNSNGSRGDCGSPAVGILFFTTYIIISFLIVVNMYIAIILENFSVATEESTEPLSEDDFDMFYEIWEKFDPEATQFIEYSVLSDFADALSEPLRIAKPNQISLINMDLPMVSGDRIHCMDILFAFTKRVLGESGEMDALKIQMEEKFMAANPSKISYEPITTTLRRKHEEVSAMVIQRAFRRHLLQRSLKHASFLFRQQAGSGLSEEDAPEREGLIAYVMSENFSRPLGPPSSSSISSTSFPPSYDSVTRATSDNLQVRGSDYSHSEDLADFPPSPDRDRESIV

SMILES	LateINa_1 uM (percent block of late INa)
FC(F)(F)Oc1ccc(-c2ccc3nnc(Oc4cccc(C(F)(F)F)c4)n3c2)cc1 [BHN-258]	80.1084%

same assay, conditions: compound at 1 μM; HEK293 cells expressing hNav1.5; late INa generated with 10 μM Tefluthrin (or 50 nM ATX II); read-out: LateINa_1 uM (percent block of late INa)

SMILES	inhibition at 1 µM
Cc1c(-c2ccc(OC(F)(F)F)cc2)ccc2nnnn12 [BHN-269, 5-methyl-6-[4-(trifluoromethoxy)phenyl]tetrazolo[1,5-a]pyridine]	44.7%
FC(F)(F)c1nnc2ccc(-c3ccc(OC4CC4)cc3)cn12 [BHN-102, 6-[4-(cyclopropyloxy)phenyl]-3-(trifluoromethyl)[1,2,4]triazolo[4,3-a]pyridine]	45.5%
FC(F)(F)Oc1ccc(-c2ccc3nnc(COCc4ccc(Cl)cc4Cl)n3c2)cc1 [BHN-250, 3-{[(2,4-dichlorobenzyl)oxy]methyl}-6-[4-(trifluoromethoxy)phenyl][1,2,4]triazolo[4,3-a]pyridine]	79.1%
FC(F)(F)Oc1ccc(-c2ccc3nnc(Oc4ccccc4)n3c2)cc1 [BHN-143, 3-phenoxy-6-[4-(trifluoromethoxy)phenyl][1,2,4]triazolo[4,3-a]pyridine]	81.4%
FC(F)(F)Oc1ccc(-c2ccc3nnc(C(F)(F)OCc4noc(C5CCC5)n4)n3c2)cc1 [BHN-259, 3-{[(5-cyclobutyl-1,2,4-oxadiazol-3-yl)methoxy](difluoro)methyl}-6-[4-(trifluoromethoxy)phenyl][1,2,4]triazolo[4,3-a]pyridine]	71.6%
CNC(=O)c1cccc(-c2nnc3ccc(-c4ccc(OC(F)(F)F)cc4)cn23)c1 [BHN-99, N-methyl-3-{6-[4-(trifluoromethoxy)phenyl][1,2,4]triazolo[4,3-a]pyridin-3-yl}benzamide]	19.6%
FC(F)(F)Oc1ccc(-c2ccc3nnc(C(F)(F)OCc4cnn(-c5ccccc5)c4)n3c2)cc1 [BHN-287, 3-{difluoro[(1-phenyl-1H-pyrazol-4-yl)methoxy]methyl}-6-[4-(trifluoromethoxy)phenyl][1,2,4]triazolo[4,3-a]pyridine]	47.1%
FC(F)(F)Oc1ccc(-c2ccc3nnc(COCc4ccc(Cl)cc4)n3c2)cc1 [BHN-241, 3-{[(4-chlorobenzyl)oxy]methyl}-6-[4-(trifluoromethoxy)phenyl][1,2,4]triazolo[4,3-a]pyridine]	82.2%
CC(C)c1nnc2ccc(-c3ccc(Oc4ccccc4)cc3)nn12 [BHN-32, 6-(4-phenoxyphenyl)-3-(propan-2-yl)[1,2,4]triazolo[4,3-b]pyridazine]	63.4%
COCC(F)(F)c1nnc2ccc(-c3cc(F)c(Oc4ccccc4)c(F)c3)cn12 [BHN-233, 3-(1,1-difluoro-2-methoxyethyl)-6-(3,5-difluoro-4-phenoxyphenyl)[1,2,4]triazolo[4,3-a]pyridine]	31.4%
FC(F)(F)Oc1ccc(-c2ccc3nnc(COC(F)(F)c4cccnc4)n3c2)cc1 [BHN-257, 3-{[difluoro(pyridin-3-yl)methoxy]methyl}-6-[4-(trifluoromethoxy)phenyl][1,2,4]triazolo[4,3-a]pyridine]	46.2%
OC(c1nnc2ccc(-c3ccc(OC(F)(F)F)cc3)cn12)C(F)(F)F (stereo not shown) [BHN-155, 2,2,2-trifluoro-1-{6-[4-(trifluoromethoxy)phenyl][1,2,4]triazolo[4,3-a]pyridin-3-yl}ethanol]	16.2%
FC(F)(F)Oc1ccc(-c2ccc3nnc(C(F)(F)OCc4ccccn4)n3c2)cc1 [BHN-211, 3-[difluoro(pyridin-2-ylmethoxy)methyl]-6-[4-(trifluoromethoxy)phenyl][1,2,4]triazolo[4,3-a]pyridine]	57.4%
FC(F)(F)Oc1ccc(-c2ccc3nnc(C(F)(F)OCc4ccnc5ccccc45)n3c2)cc1 [BHN-212, 4-[(difluoro{6-[4-(trifluoromethoxy)phenyl][1,2,4]triazolo[4,3-a]pyridin-3-yl}methoxy)methyl]quinoline]	59.6%
CC(OCc1nnc2ccc(-c3ccc(OC(F)(F)F)cc3)cn12)c1ccccc1 (stereo not shown) [BHN-246, 3-[(1-phenylethoxy)methyl]-6-[4-(trifluoromethoxy)phenyl][1,2,4]triazolo[4,3-a]pyridine]	85.8%
CC(C)(C)OC(=O)N1CCC[C@H]1COC(F)(F)c1nnc2ccc(-c3ccc(OC(F)(F)F)cc3)cn12 [BHN-256, tert-butyl (2S)-2-[(difluoro{6-[4-(trifluoromethoxy)phenyl][1,2,4]triazolo[4,3-a]pyridin-3-yl}methoxy)methyl]pyrrolidine-1-carboxylate]	62.6%
Cc1cc(COC(F)(F)c2nnc3ccc(-c4ccc(OC(F)(F)F)cc4)cn23)no1 [BHN-193, 3-{difluoro[(5-methyl-1,2-oxazol-3-yl)methoxy]methyl}-6-[4-(trifluoromethoxy)phenyl][1,2,4]triazolo[4,3-a]pyridine]	54.7%
OCCOC(F)(F)c1nnc2ccc(-c3ccc(OC(F)(F)F)cc3)cn12 [BHN-157, 2-(difluoro{6-[4-(trifluoromethoxy)phenyl][1,2,4]triazolo[4,3-a]pyridin-3-yl}methoxy)ethanol]	18.3%
FC(F)(F)c1ncc2ccc(-c3nccs3)cn12 [BHN-191, 6-(1,3-thiazol-2-yl)-3-(trifluoromethyl)imidazo[1,5-a]pyridine]	19.8%
FC(F)(F)c1nnc2ccc(-c3ccc(Oc4ccc(Cl)cc4)cc3)cn12 [BHN-65, 6-[4-(4-chlorophenoxy)phenyl]-3-(trifluoromethyl)[1,2,4]triazolo[4,3-a]pyridine]	55.6%

same assay, conditions: compound at 10 μM; HEK293 cells expressing hNav1.5; late INa generated with 10 μM Tefluthrin (or 50 nM ATX II); read-out: LateINa_10 uM (percent block of late INa)

SMILES	inhibition at 10 µM
CCNc1nnc2ccc(-c3ccc(OC(F)(F)F)cc3)cn12 [BHN-331, N-ethyl-6-[4-(trifluoromethoxy)phenyl][1,2,4]triazolo[4,3-a]pyridin-3-amine]	38.2%
FC(F)(F)c1cc(-c2ccc3nnc(C(F)(F)F)n3c2)ccc1Cl [BHN-10, 6-[4-chloro-3-(trifluoromethyl)phenyl]-3-(trifluoromethyl)[1,2,4]triazolo[4,3-a]pyridine]	51.2%
CC(C)c1nnc2ccc(-c3ccc(Oc4ccccc4)cc3)nn12 [BHN-32, 6-(4-phenoxyphenyl)-3-(propan-2-yl)[1,2,4]triazolo[4,3-b]pyridazine]	83.4%
CS(=O)(=O)c1ccc(-c2nnc3ccc(-c4ccc(Oc5ccccc5)cc4)nn23)cc1 [BHN-47, 3-[4-(methylsulfonyl)phenyl]-6-(4-phenoxyphenyl)[1,2,4]triazolo[4,3-b]pyridazine]	50.7%
FC(F)(F)c1ccc(-c2ccc3nnc(C(F)(F)F)n3c2)cn1 [BHN-91, 3-(trifluoromethyl)-6-[6-(trifluoromethyl)pyridin-3-yl][1,2,4]triazolo[4,3-a]pyridine]	46.7%
CCC(=O)Nc1cc(-c2ccc(OC(F)(F)F)cc2)cn2c(C)nnc12 [BHN-85, N-{3-methyl-6-[4-(trifluoromethoxy)phenyl][1,2,4]triazolo[4,3-a]pyridin-8-yl}propanamide]	20.5%
COC(=O)c1ccc(-c2ccc3nnc(C(F)(F)F)n3c2)cc1 [BHN-46, methyl 4-[3-(trifluoromethyl)[1,2,4]triazolo[4,3-a]pyridin-6-yl]benzoate]	53.9%
N#Cc1cccc(-c2nnc3ccc(-c4ccc(F)cc4)nn23)c1 [BHN-51, 3-[6-(4-fluorophenyl)[1,2,4]triazolo[4,3-b]pyridazin-3-yl]benzonitrile]	40.5%
Cc1nc2ccc(-c3cccc(Oc4ccccc4)c3)cn2n1 [BHN-348, 2-methyl-6-(3-phenoxyphenyl)[1,2,4]triazolo[1,5-a]pyridine]	65.7%
FC(F)(F)c1nnc2ccc(-c3ccc(Oc4ccc(Cl)cc4)cc3)cn12 [BHN-65, 6-[4-(4-chlorophenoxy)phenyl]-3-(trifluoromethyl)[1,2,4]triazolo[4,3-a]pyridine]	85.7%
